Earlier results on 2 compounds are cited in US20220184102A1, “COMPOSITIONS AND METHODS FOR TREATING AGE-RELATED MACULAR DEGENERATION” (priority 2019, published 2022).

Structures are written as SMILES.

For one data set, the system named is chronic periodontitis. To be noted: 20 mg twice daily, two years.
Data set [1] relates to early seropositive rheumatoid arthritis. As to conditions: 20 mg twice-daily (subantimicrobial dose) plus MTX.
The subject of the next data set is intestinal flora. To be noted: 20 mg twice-daily for 9 months.
For data set [2], the system named is neovascular exudative AMD. As to conditions: oral minocycline combined with reduced-fluence PDT, intravitreal ranibizumab, intravitreal dexamethasone.

Regarding `C[C@H]1c2cccc(O)c2C(=O)C2=C(O)[C@]3(O)C(=O)C(C(N)=O)=C(O)[C@@H](N(C)C)[C@@H]3[C@@H](O)[C@@H]21` [doxycycline], in the data set on chronic periodontitis, the microbiological resistance result is “no sign of microbiological resistance” and the safety issues entry was “no significant safety issues”. Moreover, the “number of adverse events versus placebo group” value in data set [1] is given as “equivalent”. For the same compound, the “antibacterial effect on intestinal flora” value in the data set with intestinal flora is listed as “no antibacterial effect”. Moreover, the tolerability result with adult periodontitis (10 mg daily, 20 mg daily or 20 mg twice daily, 9-12 months) is recorded as “well-tolerated”. For the same compound, the resistance to doxycycline entry in the data set with adult periodontitis (during the course of the study) is “no resistance developed”. For the same compound, the “liver or kidney function tests versus control group” value with adult periodontitis (treatment groups) was “No clinically significant differences”.
As for `CN(C)c1ccc(O)c2c1C[C@H]1C[C@H]3[C@H](N(C)C)C(O)=C(C(N)=O)C(=O)[C@@]3(O)C(O)=C1C2=O` [minocycline], the “levels in the brain relative to doxycycline at the same dose” value is reported as about 3 fold. Moreover, in data set [2], the safety concerns result is on record as “No safety concerns were identified”.
